The values below come from patent US5464834A, “N-substituted N'-heterobicyclic piperazines having pharmaceutical activity” (Adir et Compagnie, priority 1992, dated 1995).

For assay [1], the target named is T1, 5HT1A receptors (Rattus norvegicus, UniProt P19327).
T1 sequence (P19327 1-422): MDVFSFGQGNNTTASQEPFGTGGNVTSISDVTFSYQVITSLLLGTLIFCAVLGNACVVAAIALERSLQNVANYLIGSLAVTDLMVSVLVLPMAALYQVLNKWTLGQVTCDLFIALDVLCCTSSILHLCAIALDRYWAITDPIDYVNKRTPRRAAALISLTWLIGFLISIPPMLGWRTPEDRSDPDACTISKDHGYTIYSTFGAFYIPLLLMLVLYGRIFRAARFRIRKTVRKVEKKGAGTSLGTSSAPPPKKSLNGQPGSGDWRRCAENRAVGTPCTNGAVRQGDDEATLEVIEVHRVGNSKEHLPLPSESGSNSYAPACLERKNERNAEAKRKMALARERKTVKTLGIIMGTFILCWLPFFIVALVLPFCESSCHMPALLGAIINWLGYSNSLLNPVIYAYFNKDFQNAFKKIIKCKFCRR
Nature of the assay: Drug discrimination (DD) 8-OH-DPAT. It is filed as in vivo, rat (male Wistar). Also noted: from tissue; host or cells: whole living male Wistar rats (endogenous receptor). Particulars: for ED50: rat, sc, rats trained on 8-OH-DPAT 0.31 mg/kg. Here is the method: (§1) The tests were carried out using male Wistar rats weighing 200 to 220 g having free access to their food and to their drinking water in standard cages.
Male rats are maintained at 85% of their normal body weight by means of food restriction. In soundproofed chambers the animals are trained to press a pedal to obtain food according to an FR10 procedure (Fixed Ratio 10; the food is supplied to the rat when it has pressed the lever 10 times).
Daily sessions of 15 minutes are preceded by an injection of solvent or of the training drug (0.31 mg/kg of 8-OH-DPAT, j.p.). The animal receives a pellet of food after pressing 10 times on the "solvent" or "drug" pedal according to the compound administered before the session.
After the learning period the animals are tested twice a week (Wednesday and Friday). On the other three days training sessions are carried out.
On the training days the rats are given either solvent or 8-OH-DPAT 15 minutes before being tested.
On the test days the rats receive the chemical substance 60 minutes before the session.
The capacity of the chemical substance administered to induce a response (pressing on the "solvent" or "drug" (8-OH-DPAT ) lever ) is recorded.
7 animals chosen at random are used for each substance and for each dose. During the test period, the lever on which the rat first presses 10 times is determined as the lever chosen--a food pellet is then delivered. That selected lever will be reinforced by the delivery of food up to the end of the test session. The percentage of animals selecting the "drug" lever at a particular dose is calculated. In addition, the total number of responses carried out on the two levers is expressed as a percentage of the number of responses carried out on the "solvent" lever obtained on the occasion of a preceding training session.
(§2) The doses of the compounds tested are all expressed in base terms. Unless specified otherwise, all of the compounds were dissolved in sterile water (to which if necessary a few drops of lactic acid were added) and administered at a volume of 1 ml/kg s.c.

Assay [2] has as its target T1, 5HT1A receptors. Nature of the assay: In vitro binding test, 5HT1A receptors ([3H]-8-OH-DPAT, hippocampus membranes). Particulars: rat hippocampus; [3H]-8-OH-DPAT 0.4 nM; 30 min at 25° C; read-out: AFFINITY (pKi) (converted). Also noted: The hippocampus of the brains of decapitated rats was immediately frozen; from tissue; host or cells: hippocampus membranes of male Wistar rats; species or system rat (male Wistar). As for the experimental part: as §1
The hippocampus of the brains of decapitated rats was immediately frozen on solid carbon dioxide and then kept at -80° C. until preparation of the membranes. The tissue was homogenised at 4° C. in the appropriate buffer using a Polytron (Brinkman Instruments, Lucerne, Switzerland) and centrifuged at 20,000 revs/min.
Incubation was carried out for 30 minutes at 25° C. Non-specific binding was established by […] of 5HT. The tests were terminated by rapid filtration using a Brandel harvester through glass fibre filters pretreated with 0.1% polyethylene imine.
The IC50 values were determined in accordance with process 8 of Tallarida R. J. and Murray R. B., Manual of Pharmacological calculations with computer programs, Springer Verlag, New York, (1987).
The pKi was calculated in accordance with the following formula: [formula] wherein [L] is the concentration of the hot ligand (^[3] H-8-OH-DPAT, 0.4 nM) and Kd is the apparent dissociation constant determined from the saturation experiments.
The substances studied were dissolved in the incubation buffer.
Binding of 5HT1A receptors

Assay [3] has as its target T1, 5HT1A receptors. Nature of the assay: Spontaneous tail flick (STF) test, agonist (alone) and antagonist (vs 8-OH-DPAT). It counts as in vivo, rat (male Wistar). Also noted: from tissue; host or cells: whole living male Wistar rats (endogenous receptor). As for the experimental part: as §1
The animals are isolated individually for the tests for hypothermia, corticosterone secretion and flat body posture, or combined in groups of three for the tailflick test.
The compounds to be studied were administered by the subcutaneous route (s.c.) 60 minutes before the beginning of the test, that is to say 30 minutes before the solvent (agonist responses) or the 8-OH-DPAT (antagonist responses).
In all of the tests the solvent is used in parallel as a control. The animals were left to rest in their cage during the period between the injections and the evaluation. For the agonist studies, the solvent was administered at 1 ml/kg s.c. 30 minutes before the beginning of the test. For the antagonist studies, doses of 8-OH-DPAT that induce sub-maximal responses were chosen, that is doses of 0.63, 0.16, 0.16 and 0.16 mg/kg s.c. for, respectively, the tail flick test, flat body posture test, corticosterone secretion test and hypothermia test.
The tail flicks were determined on the animals in horizontal opaque plastics cylinders with the tail of the animals hanging freely on the edge of the laboratory work bench. After allowing 5 minutes for adaptation, the number of movements made in 5 minutes was recorded. An STF is defined as being an elevation of the tail to a level higher than that of the axis of the body [Millan M. J. et al., J. Pharmacol. Exp. Ther., 256, 973-982 (1990)].
In general, after variance analysis, the results are subjected to the Dunett test. The results are taken as significant if p <0.05.
as §2

The structures appear in SMILES notation.

As for `c1cc2c(c(N3CCN(CCCc4ccsc4)CC3)c1)OCCO2` [Example 1, 4-(Benzodioxan-5-yl)-1-[3-(thiophen-3-yl)propyl]piperazine], the ED50 in assay [1] (antagonist, vs 8-OH-DPAT, read-out: DD 8-OH-DPAT ID50 (95% CL) + DPAT) is 0.63 mg/kg; in assay [1] (compound alone, 60 min before session, read-out: DD 8-OH-DPAT ED50 (95% CL) alone) it was > 2.5 mg/kg; in assay [3] (rat, sc, antagonist test, s.c., vs 8-OH-DPAT 0.63 mg/kg s.c., read-out: STFs ID50 (95% CL) + DPAT) it was 0.12 mg/kg. Further, in assay [1] (vs 8-OH-DPAT), the “% MPA (% maximum possible antagonism), DD” value is given as 100%. Further, the Ki in assay [2] was 1.74 nM. In addition, the “STFs MED alone” value in assay [3] (agonist test, compound alone s.c., minimum effective dose vs control) is on record as > 10.0 mg/kg. In addition, in assay [3] (vs 8-OH-DPAT 0.63 mg/kg s.c.), the “% MPA (% maximum possible antagonism), STFs” value is 92%.
